From patent US20200131669A1, “CYCLIC PEPTIDE COMPOUND HAVING HIGH MEMBRANE PERMEABILITY, AND LIBRARY CONTAINING SAME” (Chugai Seiyaku Kabushiki Kaisha, priority 2017, published 2020)
Starred links: 1 amine or outer side, 2 acyl side, 3 side chain; linkers in the order of their positions; H or OH if unused. Positions of bridges follow the written chain, without caps; N, C: chain ends. Non-standard residues stand in square brackets, D forms with d. Residues, ends and D or L forms follow the SMILES beside them. ξ: configuration not given here. *: point of attachment. X13 = O=C([C@@H]1C[C@H](N2CCC(F)(F)CC2)CN1[*:1])[*:2]; Glu(NHSO2Me) = CS(=O)(=O)NC(=O)CC[C@H](N)C(=O)O; Phe(4-CF3) = N[C@@H](Cc1ccc(C(F)(F)F)cc1)C(=O)O; 3Pal(6-NMe2) = CN(C)c1ccc(C[C@H](N)C(=O)O)cn1; NMePhe(3-Cl) = CN[C@@H](Cc1cccc(Cl)c1)C(=O)O; Tyr(3-F) = N[C@@H](Cc1ccc(O)c(F)c1)C(=O)O; X14 = O=C([C@H](CCc1ccccc1Cl)N[*:1])[*:2]; Gly(N-(CH2)2OEt) = CCOCCNCC(=O)O; Hyp = O=C(O)[C@@H]1C[C@@H](O)CN1; NMeF = CN[C@@H](Cc1ccccc1)C(=O)O; NMeGABA = CN(CCCC(=O)[*:2])[*:1]; NMeI = CC[C@H](C)[C@H](NC)C(=O)O; hPhe = N[C@@H](CCc1ccccc1)C(=O)O; 4Pal = N[C@@H](Cc1ccncc1)C(=O)O; NMeD = CN[C@@H](CC(=O)O)C(=O)O; NMeL = CN[C@@H](CC(C)C)C(=O)O; dNMeL = CN[C@H](CC(C)C)C(=O)O; NMeV = CN[C@H](C(=O)O)C(C)C; NMeAbu = CC[C@H](NC)C(=O)O; Pip = O=C(O)[C@@H]1CCCCN1; NMeA = CN[C@@H](C)C(=O)O; Piperidide = C1CCN(*)CC1; Abu = CC[C@H](N)C(=O)O; Me2NCH2CH2 = CN(C)CC*; NBuGly = CCCCNCC(=O)O; Isopentyl = CC(C)CC*; NPrGly = CCCNCC(=O)O; Ethyl(2-OH) = OCC*; ξS = NC(CO)C(=O)O; Sar = CNCC(=O)O; tBu = CC(C)(C)*

Test: Caco-2 membrane permeability, improved method as used in the following Examples (96-well, 20 to 24 h preincubation)
Assay type: in vitro ADME
Details: human, Caco-2, Caco-2
Outline: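 Caco-2 monolayers were grown three weeks and preincubated 20–24 h at 37 °C with compound in DMEM+FaSSIF (1% DMSO) apically. The assay then used compound in FaSSIF/HBSS (1% DMSO, pH 6.0) apically and HBSS with 4% BSA (pH 7.4) basally. Basal samples were taken at 180 min for LC/MS, and Papp (cm/sec) was calculated.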

Compared with `CCCCN1CC(=O)N(C)[C@@H](CC(C)C)C(=O)N[C@H](C(=O)N2CCCCC2)CC(=O)N(C)[C@@H](C)C(=O)N[C@@H](Cc2ccc(N(C)C)nc2)C(=O)N(C)[C@@H](C)C(=O)N(C)[C@@H](C)C(=O)N[C@@H](CC(C)C)C(=O)N(C)[C@@H](Cc2cccc(Cl)c2)C(=O)N(C)[C@@H](CC(C)C)C(=O)N[C@@H]([C@@H](C)O)C1=O` [pd400] ([NMeA][3Pal(6-NMe2)][NMeA][NMeA]L[NMePhe(3-Cl)][NMeL]T[NBuGly][NMeL]D-Piperidide; lactam N-11), `CCCCN1CC(=O)N(C)[C@@H](CC(C)C)C(=O)N[C@@H](Cc2ccc(N(C)C)nc2)C(=O)N(C)[C@@H](CC(C)C)C(=O)N[C@@H]([C@@H](C)O)C(=O)N(C)CC(=O)N(C)[C@@H](Cc2ccccc2)C(=O)N(C)[C@@H](CC(C)C)C(=O)N[C@@H](COCCC(C)C)C(=O)N(C)[C@@H](C)C(=O)N[C@H](C(=O)N2CCCCC2)CC1=O` [pd402] ([NBuGly][NMeL][3Pal(6-NMe2)][NMeL]T[Sar][NMeF][NMeL]S(Isopentyl)[NMeA]D-Piperidide; lactam N-11) is 2.3-fold lower in Papp A→B at 180 min: 2.3 ×10⁻⁶ cm/s for the first, 1 ×10⁻⁶ cm/s for the second.

First: CC(C)C[C@@H]1NC(=O)[C@H](CC(C)C)N(C)C(=O)CCCN(C)C(=O)C[C@@H](C(=O)N2CCCCC2)NC(=O)[C@H](CC(C)C)N(C)C(=O)[C@H](CC(C)C)N(C)C(=O)[C@H](CC(C)C)NC(=O)[C@H](CC(C)C)N(C)C(=O)[C@H](CCC(=O)NS(C)(=O)=O)NC(=O)[C@H](Cc2ccccc2)N(C)C(=O)[C@H](Cc2ccccc2)N(C)C1=O [pd68] ([NMeGABA][NMeL]L[NMeF][NMeF][Glu(NHSO2Me)][NMeL]L[NMeL][NMeL]D-Piperidide; lactam N-11)
Second: CCCCN1CC(=O)N(C)[C@@H](C(C)C)C(=O)N[C@H](C(=O)N2CCCCC2)CC(=O)N(C)[C@@H](CC)C(=O)N[C@@H](CCC(=O)NS(C)(=O)=O)C(=O)N(C)[C@@H](CC(C)C)C(=O)N(C)[C@@H](Cc2cccc(Cl)c2)C(=O)N[C@@H](CC(C)C)C(=O)N(C)[C@@H](Cc2ccccc2)C(=O)N(C)[C@@H](CC(C)C)C(=O)N[C@@H]([C@@H](C)O)C1=O [pd63] ([NMeAbu][Glu(NHSO2Me)][NMeL][NMePhe(3-Cl)]L[NMeF][NMeL]T[NBuGly][NMeV]D-Piperidide; lactam N-11)
The Papp A→B at 180 min of the first is higher: 0.1 ×10⁻⁶ cm/s for the first, less than 0.1 ×10⁻⁶ cm/s for the second.

Going from `CCCN1CC(=O)N(C)[C@@H](C(C)C)C(=O)N[C@H](C(=O)N2CCCCC2)CC(=O)N(C)[C@@H](C)C(=O)N[C@@H](CC(C)C)C(=O)N(C)[C@@H](CC(C)C)C(=O)N(C)[C@@H](Cc2ccccc2)C(=O)NC(COCCN(C)C)C(=O)N(C)[C@@H](Cc2ccccc2)C(=O)N(C)[C@@H](CC(C)C)C(=O)N[C@@H]([C@@H](C)O)C1=O` (stereo partly drawn) [pd57] ([NMeA]L[NMeL][NMeF][ξS](Me2NCH2CH2)[NMeF][NMeL]T[NPrGly][NMeV]D-Piperidide; lactam N-11) to `CC[C@H](C)[C@H]1C(=O)N[C@@H](C(C)C)C(=O)N(C)CC(=O)N(C)[C@@H](CC(C)C)C(=O)N[C@H](C(=O)N2CCCCC2)CC(=O)N(C)[C@@H](C)C(=O)N[C@@H](COCCO)C(=O)N(C)[C@H](CC(C)C)C(=O)N(C)[C@@H](Cc2ccccc2)C(=O)N[C@@H](CC(C)C)C(=O)N(C)[C@@H](Cc2ccccc2)C(=O)N1C` [pd500] ([NMeA]S(Ethyl(2-OH))[dNMeL][NMeF]L[NMeF][NMeI]V[Sar][NMeL]D-Piperidide; lactam N-11), the Papp A→B at 180 min rises from 0.12 ×10⁻⁶ cm/s to 2.2 ×10⁻⁶ cm/s (18-fold).

Compared with `CC(C)C[C@H]1C(=O)N[C@@H](COC(C)(C)C)C(=O)N(C)[C@@H](Cc2ccccc2)C(=O)N(C)[C@@H](CC(C)C)C(=O)N[C@H](C(=O)N2CCCCC2)CC(=O)N2C[C@@H](N3CCC(F)(F)CC3)C[C@H]2C(=O)N(C)[C@@H](Cc2cccc(Cl)c2)C(=O)N[C@@H](C(C)C)C(=O)N(C)[C@@H](C(C)C)C(=O)N[C@@H]([C@@H](C)O)C(=O)N(C)CC(=O)N1C` [pd461] ([X13][NMePhe(3-Cl)]V[NMeV]T[Sar][NMeL]S(tBu)[NMeF][NMeL]D-Piperidide; lactam N-11), `CCO[C@@H]1C[C@H]2C(=O)N(C)[C@@H](C(C)C)C(=O)N[C@@H]([C@@H](C)O)C(=O)N(C)[C@@H](Cc3ccccc3)C(=O)N[C@@H](Cc3ccccc3)C(=O)N(C)[C@@H](CC(C)C)C(=O)N(C)[C@H](C(=O)N3CCCCC3)CC(=O)N3CCC[C@H]3C(=O)N(C)[C@@H](C(C)C)C(=O)N[C@@H](COC(C)(C)C)C(=O)N(C)[C@@H](CC(C)C)C(=O)N2C1` [pd376] (P[NMeV]S(tBu)[NMeL][Hyp](Et)[NMeV]T[NMeF]F[NMeL][NMeD]-Piperidide; lactam N-11) is 1.7-fold higher in Papp A→B at 180 min: 1.4 ×10⁻⁶ cm/s for the first, 2.4 ×10⁻⁶ cm/s for the second.

Going from `CC[C@H](C)[C@H]1C(=O)N[C@@H]([C@@H](C)O)C(=O)N(C)CC(=O)N(C)[C@@H](CC(C)C)C(=O)N[C@H](C(=O)N2CCCCC2)CC(=O)N(C)[C@@H](C)C(=O)N[C@@H](CCc2ccccc2Cl)C(=O)N(C)[C@@H](CC(C)C)C(=O)N(C)[C@@H](CC(C)C)C(=O)N[C@@H](C)C(=O)N(C)[C@@H](Cc2ccccc2)C(=O)N1C` [pd352] ([NMeA][X14][NMeL][NMeL]A[NMeF][NMeI]T[Sar][NMeL]D-Piperidide; lactam N-11) to `CC(C)C[C@H]1C(=O)N[C@@H](CCc2ccccc2)C(=O)N(C)[C@@H](Cc2ccccc2)C(=O)N(C)[C@@H](CC(C)C)C(=O)N[C@H](C(=O)N2CCCCC2)CC(=O)N[C@H](C(C)C)C(=O)N(C)[C@@H](C)C(=O)N[C@@H](C(C)C)C(=O)N(C)[C@@H](CC(C)C)C(=O)N[C@@H]([C@@H](C)O)C(=O)N(C)CC(=O)N1C` [pd313] ([dV][NMeA]V[NMeL]T[Sar][NMeL][hPhe][NMeF][NMeL]D-Piperidide; lactam N-11), the Papp A→B at 180 min rises from 1.4 ×10⁻⁶ cm/s to 2.5 ×10⁻⁶ cm/s (1.8-fold).

Molecule `CCCCN1CC(=O)N(C)[C@@H](CC(C)C)C(=O)N[C@H](C(=O)N2CCCCC2)CC(=O)N(C)[C@@H](CC)C(=O)N[C@@H](CC(C)C)C(=O)N(C)[C@@H](CC(C)C)C(=O)N(C)[C@@H](Cc2ccccc2)C(=O)N[C@@H](CC)C(=O)N(C)[C@@H](Cc2ccccc2)C(=O)N(CCOCC)CC(=O)N[C@@H]([C@@H](C)O)C1=O` [pd419] ([NMeAbu]L[NMeL][NMeF][Abu][NMeF][Gly(N-(CH2)2OEt)]T[NBuGly][NMeL]D-Piperidide; lactam N-11) has a Papp A→B at 180 min of 2.3 ×10⁻⁶ cm/s.

Same assay, conditions: human, Caco-2, Caco-2 (cm/sec)

Going from `CC(C)C[C@@H]1NC(=O)[C@H](Cc2ccccc2)N(C)C(=O)[C@@H](C(C)C)NC(=O)C[C@@H](C(=O)N2CCCCC2)NC(=O)[C@H](Cc2ccccc2)N(C)C(=O)[C@H](Cc2ccccc2)N(C)C(=O)[C@H](COC(C)(C)C)NC(=O)[C@H](CC(C)C)N(C)C(=O)CN(C)C(=O)[C@H]([C@@H](C)O)NC(=O)[C@H](CC(C)C)N(C)C1=O` [pd215] ([dV][NMeF]L[NMeL]T[Sar][NMeL]S(tBu)[NMeF][NMeF]D-Piperidide; lactam N-11) to `CC[C@H](C)[C@@H]1NC(=O)[C@H](CC(C)C)N(C)C(=O)[C@@H](C)NC(=O)C[C@@H](C(=O)N2CCCCC2)NC(=O)[C@H](C)N(C)C(=O)[C@H](Cc2ccccc2)N(C)C(=O)[C@H](COC(C)(C)C)NC(=O)[C@H](CC(C)C)N(C)C(=O)CN(C)C(=O)[C@H](Cc2ccc(O)c(F)c2)NC(=O)[C@H](CC(C)C)N(C)C1=O` [pd124] ([dA][NMeL]I[NMeL][Tyr(3-F)][Sar][NMeL]S(tBu)[NMeF][NMeA]D-Piperidide; lactam N-11), the Papp A→B at 180 min falls from 1.2 ×10⁻⁶ cm/s to 0.32 ×10⁻⁶ cm/s (3.8-fold).

Going from `CC(C)C[C@@H]1NC(=O)[C@H](CC(C)C)N(C)C(=O)[C@@H](CC(C)C)NC(=O)C[C@@H](C(=O)N2CCCCC2)NC(=O)[C@H](CC(C)C)N(C)C(=O)[C@H](Cc2cccc(Cl)c2)N(C)C(=O)[C@H](Cc2ccncc2)NC(=O)[C@H](CC(C)C)N(C)C(=O)CN(C)C(=O)[C@H]([C@@H](C)O)NC(=O)[C@H](CC(C)C)N(C)C1=O` [pd172] ([dL][NMeL]L[NMeL]T[Sar][NMeL][4Pal][NMePhe(3-Cl)][NMeL]D-Piperidide; lactam N-11) to `CC[C@H](C)[C@@H]1NC(=O)[C@H](CC(C)C)N(C)C(=O)CCCN(C)C(=O)C[C@@H](C(=O)N2CCCCC2)NC(=O)[C@H](CC(C)C)N(C)C(=O)[C@H](C)N(C)C(=O)[C@H](Cc2c[nH]c3ccccc23)NC(=O)[C@H](CC(C)C)N(C)C(=O)[C@H](COC(C)(C)C)NC(=O)[C@H](CC(C)C)N(C)C(=O)[C@H](CC(C)C)N(C)C1=O` [pd110] ([NMeGABA][NMeL]I[NMeL][NMeL]S(tBu)[NMeL]W[NMeA][NMeL]D-Piperidide; lactam N-11), the Papp A→B at 180 min falls from 1.1 ×10⁻⁶ cm/s to 0.29 ×10⁻⁶ cm/s (3.8-fold).

Going from `CC(C)C[C@H]1C(=O)N(C)[C@@H](C)C(=O)N(C)[C@@H](Cc2ccccc2)C(=O)N[C@@H]([C@@H](C)O)C(=O)N(C)[C@@H](CC(C)C)C(=O)N[C@@H](Cc2ccc(C(F)(F)F)cc2)C(=O)N2CCC[C@H]2C(=O)N[C@H](C(=O)N2CCCCC2)CC(=O)N1C` [pd135] ([NMeL][NMeA][NMeF]T[NMeL][Phe(4-CF3)]PD-Piperidide; lactam N-8) to `CC(C)C[C@H]1C(=O)N[C@H](C(=O)N2CCCCC2)CC(=O)N[C@H](C)C(=O)N(C)[C@@H](CC(C)C)C(=O)N2CCCC[C@H]2C(=O)N(C)[C@@H](CC(C)C)C(=O)N2CCCC[C@H]2C(=O)N(C)[C@@H](C)C(=O)N[C@@H]([C@@H](C)O)C(=O)N(C)[C@@H](Cc2ccccc2)C(=O)N[C@@H](Cc2ccc(C(F)(F)F)cc2)C(=O)N1C` [pd141] ([dA][NMeL][Pip][NMeL][Pip][NMeA]T[NMeF][Phe(4-CF3)][NMeL]D-Piperidide; lactam N-11), the Papp A→B at 180 min rises from 1.3 ×10⁻⁶ cm/s to 2.1 ×10⁻⁶ cm/s (1.6-fold).
